Reference: patent US20030211036A1, “Method and apparatus for monitoring and quantitatively evaluating tumor perfusion” (priority 2002, published 2003)

Legend:
[1] = HDO concentration in mice plasma by 2H-MRS during and post 2H-saline i.v. infusion (arterial input function); type: in vivo
Description: (§1) Enrichment of the mice's blood with HDO (99.8%) was achieved by applying a slow i.v. infusion of I ml ^2H-saline with a rate of 100 μl/min.
Blood samples ([…]) were drawn from anesthetized mice by retro orbital sinus puncture at 7 time points, 3 mice for each time point, during and post ^2H saline infusion. Samples were collected into separate tubes containing heparin (50 units/ml of blood, Elkins-Sinn Inc., Cherry Hill, N.J.) and were centrifuged at room temperature. The plasma supernatant samples were separated and transferred into 5 mm NMR tubes. ^2H-MR spectra of the plasma samples were recorded at 61.4 MHz on DMX-400 spectrometer (Bruker Analytik, Germany), with a broad-band probe by applying 90° pulses with 4 s repetition time (fully relaxed conditions). Choline-(CD3)3 was added to each plasma sample as an internal reference for concentration.
The 2-compartment kinetic model related the concentration of the tracer in the tissue to tissue's perfusion, as shown by Eq. [3]. Thus, knowledge of the changing arterial tracer concentration over time, termed arterial input function, was required for the numerical solution of the model. In order to obtain qualitative ^2H-images of the tumors and to allow monitoring of HDO uptake with high spatial resolution, a slow i.v. infusion of ^2H-saline, 1 ml in 10 min. was applied. This protocol enriched the content of HDO in the plasma, which is 0.0148% at natural abundance, by 6.8% of HDO that is below toxic levels (13, 14). HDO concentration in the plasma, determined by ^2H-MRS, was monitored during and post-^2H saline infusion (FIG. 1A). During the infusion, HDO accumulated linearly with a correlation coefficient, R^2, of 0.996. The slow decay of HDO in the plasma, post-infusion, approximated linearity with R^2=0.730. Thus, a linear regression analysis of the blood input function Cp(t), was applied in parts, producing two linear functions: (i) during ^2H-saline infusion at t=t0−tinfus, Cp(t)=f(t)=at+b and (ii) post ^2H-saline infusion at t=tinfus−tend, Cp(t)=g(t)=ct+d. […] The plasma concentrations of HDO before and at the end of ^2H-saline infusion were b=0.016 mmol·ml^−1 and d=7.69 mmol·ml^−1, respectively.

[2] = tested on: orthotopic MCF7 human breast cancer tumors; assay: Dynamic 3D 2H-MRI of HDO perfusion with two-compartment model-based analysis per voxel; type: in vivo, CD1-NU mice
Description: A two-compartment model was custom developed for this activity to describe the kinetics of HDO in MCF7 tumors. The model, designed by Yeung et al. (41) to calculate blood brain transfer constant, is a special case of Patlak's blood-brain exchange model (31, 32). In the present work, the two compartments were assigned to the intravascular space with its respective volume fraction vp and the extravascular space, with its effective volume fraction of water ve* which is approximately 70% of the actual extravascular volume ve (ve*=0.7 ve) their respective volume fraction vp and ve* where,
The experimental kinetic data were fitted to Eq. [7] and Eq. [8] with two free parameters: K and vp, using the following substitutions: ve*=1−vp and kb=K/(1−vp). Deuterium signal intensity per pixel in arbitrary units was converted to Cv(t) in mmol/ml using a calibration solution of known deuterium concentration in saline solution ( 9.9 mmol/ml).
The method and apparatus of the present invention were tested experimentally according to the following protocol. Female CD1-NU athymic mice, 6 weeks old, were orthotopically inoculated in the mammary fat pad with MCF7 human breast cancer cells as previously described (33). Tumors were allowed to develop for 4-8 weeks, to sizes ranging between 0.2-2 cm^3 with average size 0.8±0.2 cm^3. For the MRI measurements, mice were anesthetized by exposure to 1% isoflurane (Medeva Pharmaceuticals, Inc., Rochester, N.Y.), in an O2/N2O (3:7) mixture, applied through a nose cone. Approval was obtained for all animal procedures according to the guidelines of the Committee on Animals of the Weizmann Institute of Science.
as §1
In-vivo imaging was accomplished by taking MR images and recording with a 4.7 T Biospec spectrometer (Bruker Analytik, Germany). ^2H and ^1H images were recorded at frequencies of 30.7 MHz and 200 MHz, respectively, and detected by a home-built double-tuned ^2H/^1H surface coil system, 1.5/2.5 cm in diameter. Dynamic ^2H MR images were acquired utilizing a 3-dimensional (3D) gradient echo sequence with the following parameters: echo time (TE)=3 msec, […] (TR)=60 msec, flip angle=45° achieved by an adiabatic pulse (sin/cos), 2 averages, matrix—128×64×16, 2.6 mm slice thickness, an in-plane resolution of 1×2 mm2 and acquisition time of 2.05 min. The sequential acquisition of ^2H-images began with a pre-infusion image and continued throughout ^2H-saline iv. infusion, into the tail vein of the mouse (1 ml/10 min.), and for 30 minutes thereafter. The pre-infusion images were recorded with a tube containing 9.9 mmol/ml HDO in saline solution, attached to the tumor. This served to calibrate the signal intensity to deuterium concentration in units of mmol/ml.
Image analysis was applied on the time evolution of ^2H intensity in a series of coronal images that were reconstructed from dynamic 3D images of the whole tumor acquired before, during and post ^2H-saline infusion. Analysis was performed utilizing a nonlinear least-square fitting algorithm, developed for the purpose of the invention, at a voxel resolution. The computed analysis initially converted ^2H intensity to concentration by referring to the intensity at the pre-infusion image (t=0) in the attached calibration tube that contained a solution of HDO at a concentration of 9.9 mmol/ml. […]

[3] = General well-being of the animals under the slow i.v. 2H-saline infusion protocol; type: in vivo, mice; settings: i.v. infusion of 1 ml 2H-saline at 100 μl/min
Description: as §1

[4] = cited from earlier work

[2H]O[2H] [HDO, deuterated water]
plasma concentration of HDO before 2H-saline infusion (b) ([1]; mice plasma, before infusion): 16000 µM
plasma concentration of HDO at the end of 2H-saline infusion (d) ([1]; mice plasma, end of i.v. infusion, 1 ml in 10 min): 7.69e+06 µM
rate of HDO clearance from plasma post infusion (c) ([1]; mice plasma, post 2H-saline infusion, linear regression g(t)=ct+d): -0.07 mmol/mL/min
rate of HDO accumulation in plasma during infusion (a) ([1]; mice plasma, slow i.v. infusion of 2H-saline, 1 ml in 10 min, linear regression f(t)=at+b): 0.67 mmol/mL/min
enrichment of the content of HDO in the plasma ([1]; slow i.v. infusion of 2H-saline, 1 ml in 10 min, natural abundance 0.0148%): 6.8%
concentration of HDO in the plasma upon infusion with respect to bolus injection ([1]; slow i.v. infusion versus bolus injection of 200 μl): ~6 times higher
K, fit to the HDO perfusion kinetic model ([2]; FIG. 3 single voxel (a), R^2=0.94): 0.0016 min⁻¹
K, fit to the HDO perfusion kinetic model ([2]; FIG. 3 single voxel (b), R^2=0.94): 0.0005 min⁻¹
K, fit to the HDO perfusion kinetic model ([2]; FIG. 3 single voxel (c), R^2=0.96): 0.0031 min⁻¹
range of the perfusion rate per voxel ([2]; all voxels of the parametric maps, seven MCF7 tumors): 4e-06 to 0.0039 min⁻¹
Perfusion rate, K, Mean, Average ([2]; average of the total population of voxels in the ROIs of all tumors (n = 1278 pixels)): 1.02 ± 0.02 ·10^−3 min^−1
adverse effects on the general well-being of the animals [3]: no adverse effects
HDO enrichment of body fluids considered nontoxic [4]: up to 10%
